Data on 24 molecules can be found in ChEMBL document CHEMBL3608211, “Exploration of Pharmacophore in Chrysosplenol C as Activator in Ventricular Myocyte Contraction” (ACS Med Chem Lett, 2015).

In brackets after ≈: the same amount, converted by molar mass. Activity calls are given as the source filed them. No cut-off for these calls is given here.

A short description of data set [1]: Positive inotropic effect in Sprague-Dawley rat ventricular myocytes assessed as change in ventricular cell contractility at 10 uM by video edge detector relative to control. The format is functional, Ventricular myocyte.
Data set [2] in a line: Positive inotropic effect in Sprague-Dawley rat ventricular myocytes assessed as change in ventricular cell contractility at 50 uM by video edge detector relative to control. In kind it is functional, Ventricular myocyte.
The species entered for a further data set is Bos taurus. The experiment in a line: Activation of cardiac myosin S1 ATPase in bovine sarcomere at 10 uM by spectrophometric analysis in presence of actin thin filament complex relative to control.
Data set [3] in a line: Solubility of the compound in DMSO/tyrode solution. The format is physicochemical.
The species named for the next data set is Oryctolagus cuniculus. The experiment in a line: Activation of skeletal myosin S1 ATPase in rabbit psoas muscle at 10 uM in presence of actin thin filament complex. The format is tissue-based.
The species entered for the next data set is Gallus gallus. The experiment in a line: Activation of smooth myosin S1 ATPase in chicken gizzard at 10 uM in presence of actin thin filament complex.
The nature of data set [4]: Positive inotropic effect in Sprague-Dawley rat ventricular myocytes assessed as change in ventricular cell contractility at 400 nM by video edge detector relative to control. The format is functional, Ventricular myocyte.
Data set [5] can be described thus: Positive inotropic effect in Sprague-Dawley rat ventricular myocytes assessed as change in ventricular cell contractility at 1 uM by video edge detector relative to control. In kind it is functional, Ventricular myocyte.

The term solubility denotes how much of the substance goes into solution per volume.

For `COc1ccc2c(=O)c(O)c(-c3ccc(O)c(OC)c3)oc2c1`, the Activity is 8.17% in data set [1], 3.98% in data set [2] and 0% in the data set filed under Bos taurus.
In the case of `COc1cc(-c2oc3ccccc3c(=O)c2O)ccc1O`, the Activity in data set [1] came out at 10.5%; in data set [2] it was 10.3%.
The like results for `COc1ccc2c(=O)c(O)c(-c3ccc(O)cc3)oc2c1` were, in that order, 8.87% and 23.1%.
As to `COc1ccc2c(=O)c(OC)c(-c3ccc(O)c(OC)c3)oc2c1`, the Activity in data set [1] was found to be 60.7%; in data set [2], 45.3%; in the data set listed under Bos taurus it was 33.7%. Also, the solubility in data set [3] came to 17.1 µg/mL (≈ 52 µM). Also, the outcome in the data set filed under Oryctolagus cuniculus and in the data set filed under Gallus gallus was inactive.
Regarding `COc1cc(-c2oc3ccc(O)cc3c(=O)c2OC)ccc1O`, the Activity was found to be 3.9% in data set [1] and 9.3% in data set [2].
For the molecule `COc1ccc2c(=O)c(OC)c(-c3ccc(O)cc3)oc2c1`, the Activity is 42.1% in data set [1], 38.6% in data set [2] and 30.9% in the data set filed under Bos taurus. The result in the data set filed under Oryctolagus cuniculus and in the data set listed under Gallus gallus was inactive.
As for `COc1c(-c2cccc(O)c2)oc2cc(Cl)ccc2c1=O`, the Activity came to 54.8% in data set [1], 53.9% in data set [2] and 38.7% in the data set filed under Bos taurus. Also, the result in the data set listed under Oryctolagus cuniculus and in the data set listed under Gallus gallus was inactive.
In the case of `O=c1c(O)c(-c2ccc(O)cc2)oc2cc(Cl)ccc12`, the Activity in data set [1] amounted to 0%; in data set [2], 11%.
Regarding `COC(=O)N1CCN(Cc2cccc(NC(=O)Nc3ccc(C)nc3)c2F)CC1` [OMECAMTIV MECARBIL], the Activity in data set [4] came out at 59.3%; in data set [5], 33.8%; in the data set filed under Bos taurus, 80.4%.
On to `COc1c(-c2ccc(Cl)cc2)oc2cc(Cl)ccc2c1=O`, for which the Activity in data set [1] and in data set [2] was 0% throughout.
As to `COc1cc(-c2oc3cccc(O)c3c(=O)c2O)ccc1O`, the Activity in data set [1] and in data set [2] was 0% throughout.
Consider `COc1cccc(-c2oc3cc(Cl)ccc3c(=O)c2OC)c1`, for which the Activity is 16.6% in data set [1] and 23.6% in data set [2].
The like results for `COc1cc(/C=C/C(=O)c2ccc(Cl)cc2O)ccc1O` were, in that order, 0% and 0%.
Take `COc1cc(-c2oc3cccc(O)c3c(=O)c2OC)ccc1O`: the Activity in data set [1] turned out to be 4.2%; in data set [2], 12.3%; in the data set filed under Bos taurus it was 0%.
As for `COc1cc(-c2oc3ccc(O)cc3c(=O)c2O)ccc1O`, the Activity in data set [1] and in data set [2] was 0% in each case.
In the case of `COc1cc(-c2oc3cc(Cl)ccc3c(=O)c2O)ccc1O`, the figures for the Activity in data set [1] and in data set [2] were 23.5% and 57.3%, respectively.
As for `COc1c(-c2ccc(O)cc2)oc2cc(Cl)ccc2c1=O`, the Activity in data set [1] was 49.6%; in data set [2] it was 62.1%; in the data set listed under Bos taurus, 28.9%. The result in the data set listed under Oryctolagus cuniculus and in the data set listed under Gallus gallus was inactive.
With `COc1cc(-c2oc3cc(Cl)ccc3c(=O)c2OC)ccc1O`, the Activity in data set [1] worked out at 43.9%; in data set [2], 41.8%; in the data set listed under Bos taurus it was 36.4%. For the same molecule, the outcome in the data set filed under Oryctolagus cuniculus and in the data set listed under Gallus gallus was inactive.
On to `COc1cc(-c2oc3ccccc3c(=O)c2OC)ccc1O`, for which the Activity was determined as 30.5% in data set [1] and 44.9% in data set [2].
With `COc1ccc2c(=O)c(OC)c(-c3ccc(Cl)cc3)oc2c1`, the Activity in data set [1] and in data set [2] was 0% in each case.
In the case of `COc1cccc(-c2oc3cc(Cl)ccc3c(=O)c2O)c1`, the Activity in data set [1] and in data set [2] was 0% each time.
In the case of `COc1cc(-c2oc3cc(OC)c(O)c(O)c3c(=O)c2OC)ccc1O` [CHRYSOSPLENOL C], the figures for the Activity (in data set [1]; in data set [2]; in the data set filed under Bos taurus) were 16.6%, 53% and 28.1%, respectively. Moreover, the solubility in data set [3] was determined as 14.1 µg/mL (≈ 39.1 µM). Further, the outcome in the data set listed under Oryctolagus cuniculus and in the data set listed under Gallus gallus was inactive.
Regarding `COc1ccc(-c2oc3cc(OC)c(OC)c(O)c3c(=O)c2OC)cc1OC` [ARTEMETIN], the figures for the Activity in data set [1] and in data set [2] were 8.7% and 21.6%, respectively.
The like results for `COc1cc(-c2cc(=O)c3ccc(Cl)cc3o2)ccc1O` were, in that order, 0% and 0%.
